Measurements published in patent publication US6083964A, “Optical resolution of racemic aminoalkylpyridine anticonvulsants and (+) aminoalkylpyridine enantiomers as highly potent orally effective anticonvulsant drugs and excitatory amino acid antagonists” (K and K Biosciences, Inc., priority 1999, dated 2000).

What was measured:
[1] = test system: maximal electroshock seizure (MES) in mice; assay: Maximal electroshock seizure (MES) test, mice, i.p.; format: in vivo, mouse (male Carworth Farms #1)
Excerpt: The (+) AAP enantiomers obtained by optical resolution of racemic AAPs and the resulting highly orally effective anticonvulsant compositions of this invention are useful in the treatment of convulsive disorders. […] A series of (+) AAP enantiomers and (-) AAP enantiomers of this invention has been evaluated for anticonvulsant activity by the intraperitoneal (i.p.) and by the oral (p.o.) route using two standard seizure models in the mouse and in the rat, the maximal electroshock seizure (MES) test and the subcutaneous pentylenetetrazol (Metrazole) seizure threshold (scMet) test. […] The following Table 2 presents the results of these anticonvulsant tests with respect to several (+) and (-) AAP enantiomeric compounds derived from optical resolution of racemic AAPs of the present invention. This Table 2 identifies the specific compounds tested by their chemical name and provides the test model, the route of administration, the animal species used, and the anticonvulsant activity and toxicity in terms of ED50 and TD50 values, (the median effective and toxic dose respectively), when intraperitoneally administered to mice, and when orally administered to rats. In mice, i.p.: All compounds are emulsified in 0.5% methylcellulose. The solvent has been tested for anticonvulsant and toxic effects and found to introduce no significant bias into the testing of anticonvulsant activity. The compounds are administered intraperitoneally in a volume of 0.01 ml/gm to male Carworth Farms #1 mice weighing about 20 gm. All compounds are tested at least at three dose levels (30, 100 and 300 mg/kg) at 30 minutes and 4 hours after their administration. The Maximal Electroshock Seizure Test (MES): Maximal electroshock seizures are elicited with a 60 Hz alternating current of 50 mA intensity in mice and about 150 mA intensity in rats (5-7 times that necessary to elicit minimal electroshock seizures), delivered for 0.2 sec via corneal electrodes. A drop of 0.9% saline is instilled in the eye prior to application of the electrodes in order to […]. Abolition of the hind limb tonic extension component of the seizure is defined as protection and results are expressed as number of animals protected/number of animals tested. The Subcutaneous Pentylenetetrazol (Metrazole) Seizure Threshold Test (scMet): A 0.5% solution of 85 mg/kg of pentylenetetrazol is administered subcutaneously in the posterior midline 30 minutes or 4 hours after drug administration to the animal. […] Anticonvulsant Quantification in Mice i.p.: The ED50 values are determined in the MES, scMet and rotorod ataxia test. To determine the ED50 values, five logarithmically spaced doses of the test compound are administered to animals (male Carworth Farms #1 mice) in groups of eight, to cover 0-100% protection, and the dose required to protect 50% of the animals (ED50) together with its 95% confidence limits, is determined graphically.

[2] = test system: hippocampal kindled rats; assay: Hippocampal kindled rat model, i.p.; format: in vivo; parameters: key to Seizure Score ± S.E.M.: Racine seizure class scale; class 5 = rearing and falling; settings: for seizure score and afterdischarge duration (in words): hippocampal kindled rat
Excerpt: "Kindling" refers to the process whereby repeated administration of an initially subconvulsive electrical stimulus results in progressive intensification of epileptic discharge culminating in a generalized seizure. Kindling can be induced by electrical stimulation of many sites in the brain, especially in "limbic" areas, which include amygdala, hippocampus, and entorhinal cortex [Racine, R., Neurosurgery, 3, 234-252 (1978)]. Kindling is reliably produced by a one second train of 60 Hz square wave stimuli of one millisecond duration at current levels which initially produce only a slight afterdischarge (AD), but no behavioral response. Repeated stimulation, typically once daily, results in a progressive increase in AD amplitude, duration and complexity with subsequent spread to other brain areas culminating in a fully generalized motor seizure. [Racine, R. J. and Zaide, J., In "Mechanisms, the Continuing Evolution of the Limbic System Concept" (K. E. Livingston and O. Hornykiewicz, eds.), Plenum Press, pp. 457-493, 1978.
The development of kindling in the rat has been characterized by five (1 to 5) behavioral and electrographic "classes". The behavior in classes 1 (facial clonus) and 2 (head nodding) mimics that found in human complex partial seizures; the behavior in other classes would be consistent with limbic seizures evolving to generalized motor seizures. An animal is considered to be fully kindled once the enhanced sensitivity has developed, as evidenced by a class 5 seizure (rearing and falling).
The (+) AAP enantiomer, compound 1 in Table 1, was tested in the hippocampal kindled rat, by the i.p. route. […]
The (-) AAP enantiomer, compound 2 in Table 1, was also tested in the hippocampal kindled rat, by the i.p. route.

[3] = test system: pentylenetetrazol (Metrazole) seizure threshold in mice; assay: Timed intravenous Metrazol (PTZ) seizure threshold test in mice, i.p.; format: in vivo, mouse; settings: for time to twitch: control 33.03; for PTZ dose for the clonus component: control 37.60; for time to clonus: control 39.71
Excerpt: A compound that is active in the MES test and prevents seizure spread, can lower seizure threshold at the same time. Such a compound would have proconvulsant activity while at the same time prevent generalized tonic seizures. […] The timed intravenous pentylenetetrazol (Metrazol) seizure threshold test in mice identifies those MES compounds with proconvulsant potential.
Mice were given the (+) and (-) enantiomers, compounds 1 and 2 in Table 1, intraperitoneally at the ED50 and TD50. At the time of maximal MES activity, an intravenous infusion of 0.5% heparinized solution of pentylenetetrazol (PT2) (0.34 ml/min) was started. The time to the appearance of the first myoclonic jerk (twitch) and the subsequent sustained clonic seizure (clonus) were the measured endpoints. Results were obtained for groups of ten treated and ten saline control mice and converted to the dose in mg/kg of PTZ necessary to produce the two endpoints.
Experiments were performed using three doses of 0, 36 and 149 mg/kg on each of 10 animals per dosage group. The time to "twitch" and the time to "clonus", the two components of the seizure elicited by the infusion of metrazol, were observed.

## CC(Nc1ccc(Cl)cc1)c1ccncc1 (single isomer, unassigned; (+)) [Compound 1, (+) N-(4-Chlorophenyl)-1-(4-pyridyl)ethylamine]
[1]; MES, listed as (1) (+) Enantiomer
  P.I. (protective index, TD50/ED50): 4.2
[1]; Mus musculus, ip, MES test, read-out: ED50
  ED50: 35.9 mg/kg
[2]; 25 mg/kg i.p., 15 min
  Afterdischarge Duration (sec) ± S.E.M.: 76.63 ± 7.34 s
  Seizure Score ± S.E.M.: 4.63 ± 0.18
[2]; 25 mg/kg i.p., 45 min
  # Protected/# Tested: 2/8
  Afterdischarge Duration (sec) ± S.E.M.: 54.63 ± 12.54 s
  Seizure Score ± S.E.M.: 3.75 ± 0.65
[2]; 25 mg/kg i.p., 75 min
  Afterdischarge Duration (sec) ± S.E.M.: 62.75 ± 10.46 s
  Seizure Score ± S.E.M.: 4.13 ± 0.48
[2]; 25 mg/kg i.p., 105 min
  Afterdischarge Duration (sec) ± S.E.M.: 74.75 ± 6.44 s
  Seizure Score ± S.E.M.: 5.00 ± 0.00
[2]; 25 mg/kg i.p., 135 min
  Seizure Score ± S.E.M.: 4.50 ± 0.19
[2]; 50 mg/kg i.p., 15 min
  Afterdischarge Duration (sec) ± S.E.M.: 56.43 ± 7.60 s
  Seizure Score ± S.E.M.: 3.75 ± 0.53
[2]; 50 mg/kg i.p., 45 min
  # Protected/# Tested: 2/8
  Afterdischarge Duration (sec) ± S.E.M.: 63.38 ± 10.75 s
  Seizure Score ± S.E.M.: 4.13 ± 0.40
[2]; 50 mg/kg i.p., 75 min
  Afterdischarge Duration (sec) ± S.E.M.: 63.14 ± 6.38 s
  Seizure Score ± S.E.M.: 4.71 ± 0.18
[2]; 50 mg/kg i.p., 105 min
  Afterdischarge Duration (sec) ± S.E.M.: 74.57 ± 11.58 s
  Seizure Score ± S.E.M.: 4.71 ± 0.18
[2]; 50 mg/kg i.p., 135 min
  Afterdischarge Duration (sec) ± S.E.M.: 61.43 ± 12.97 s
  Seizure Score ± S.E.M.: 4.00 ± 0.69
[2]; 50 mg/kg i.p., 165 min
  Afterdischarge Duration (sec) ± S.E.M.: 73.14 ± 9.41 s
  Seizure Score ± S.E.M.: 4.57 ± 0.20
[2]; 75 mg/kg i.p., 15 min
  Afterdischarge Duration (sec) ± S.E.M.: 63.29 ± 6.70 s
[2]; 75 mg/kg i.p., 15 min, * significantly different from control
  Seizure Score ± S.E.M.: 2.86 ± 0.59
[2]; 75 mg/kg i.p., 45 min
  # Protected/# Tested: 5/7
  Afterdischarge Duration (sec) ± S.E.M.: 55.43 ± 10.39 s
[2]; 75 mg/kg i.p., 45 min, * significantly different from control
  Seizure Score ± S.E.M.: 2.43 ± 0.69
[2]; 75 mg/kg i.p., 75 min
  Afterdischarge Duration (sec) ± S.E.M.: 74.57 ± 10.36 s
[2]; 75 mg/kg i.p., 75 min, * significantly different from control
  Seizure Score ± S.E.M.: 2.86 ± 0.59
[2]; 75 mg/kg i.p., 105 min
  Afterdischarge Duration (sec) ± S.E.M.: 68.57 ± 5.52 s
[2]; 75 mg/kg i.p., 105 min, * significantly different from control
  Seizure Score ± S.E.M.: 3.86 ± 0.34
[2]; 75 mg/kg i.p., 135 min
  Afterdischarge Duration (sec) ± S.E.M.: 65.00 ± 4.12 s
  Seizure Score ± S.E.M.: 4.14 ± 0.26
[2]; 100 mg/kg i.p., 15 min
  Afterdischarge Duration (sec) ± S.E.M.: 63.43 ± 11.37 s
[2]; 100 mg/kg i.p., 15 min, Table 3 value * significantly different from control
  Seizure Score ± S.E.M.: 2.00 ± 0.69
[2]; 100 mg/kg i.p., 45 min
  # Protected/# Tested: 6/7
  Afterdischarge Duration (sec) ± S.E.M.: 63.29 ± 4.76 s
[2]; 100 mg/kg i.p., 45 min, Table 3 value * significantly different from control
  Seizure Score ± S.E.M.: 2.00 ± 0.58
[2]; 100 mg/kg i.p., 75 min
  Afterdischarge Duration (sec) ± S.E.M.: 75.43 ± 9.70 s
[2]; 100 mg/kg i.p., 75 min, Table 3 value * significantly different from control
  Seizure Score ± S.E.M.: 2.29 ± 0.61
[2]; 100 mg/kg i.p., 105 min
  Afterdischarge Duration (sec) ± S.E.M.: 71.00 ± 5.35 s
[2]; 100 mg/kg i.p., 105 min, Table 3 value * significantly different from control
  Seizure Score ± S.E.M.: 2.29 ± 0.71
[2]; Rattus norvegicus, ip, 0.75 h, hippocampal kindled rats, 45 min, 95% C.I. printed b332
  ED50: 54.9 mg/kg
[2]; dose response, hippocampal kindled rats, i.p., 45 min
  Slope: 2.93 ± 1.16
[2]; i.p.
  seizure score and afterdischarge duration (in words): significantly reduced seizure score and afterdischarge duration and the effect was dose-dependent
[2]; i.p., listed as (+) N-(4-chlorophenyl)-1-(4-pyridyl)ethylamine
  seizure score and afterdischarge duration (in words): significantly reduced from that of the control
[3]; 36 mg/kg dosage group
  time to twitch: 34.91 s
  PTZ dose for the clonus component: 46.84 mg/kg
  time to clonus: 48.56 s
[3]; 149 mg/kg dosage group, control 31.23
  PTZ dose for the twitch component: 33.31 mg/kg
[3]; 149 mg/kg dosage group
  time to twitch: 35.01 s
  PTZ dose for the clonus component: 74.13 mg/kg
  time to clonus: 77.56 s
[3]; mice
  amount of PTZ required to produce the twitch and clonus and time to twitch and time to clonus (in words): significantly raised
